In patent US20250320206A1, “STAT6 DEGRADERS” (Gilead Sciences, Inc., priority 2024, published 2025):

The compounds below were run against T1, STAT6 (Homo sapiens, UniProt P42226) (assay: Stat6 Degrader Assay (HiBiT based, HeLa LgBiT clone 4.14)). Conditions: HeLa LgBiT clone 4.14 HiBiT-STAT6, 4-24 h incubation; read-out: STAT6 degradation Emax.
T1 construct: These cells express endogenous STAT6; host or cells: HeLa LgBiT clone 4.14
T1 sequence (P42226 1-847): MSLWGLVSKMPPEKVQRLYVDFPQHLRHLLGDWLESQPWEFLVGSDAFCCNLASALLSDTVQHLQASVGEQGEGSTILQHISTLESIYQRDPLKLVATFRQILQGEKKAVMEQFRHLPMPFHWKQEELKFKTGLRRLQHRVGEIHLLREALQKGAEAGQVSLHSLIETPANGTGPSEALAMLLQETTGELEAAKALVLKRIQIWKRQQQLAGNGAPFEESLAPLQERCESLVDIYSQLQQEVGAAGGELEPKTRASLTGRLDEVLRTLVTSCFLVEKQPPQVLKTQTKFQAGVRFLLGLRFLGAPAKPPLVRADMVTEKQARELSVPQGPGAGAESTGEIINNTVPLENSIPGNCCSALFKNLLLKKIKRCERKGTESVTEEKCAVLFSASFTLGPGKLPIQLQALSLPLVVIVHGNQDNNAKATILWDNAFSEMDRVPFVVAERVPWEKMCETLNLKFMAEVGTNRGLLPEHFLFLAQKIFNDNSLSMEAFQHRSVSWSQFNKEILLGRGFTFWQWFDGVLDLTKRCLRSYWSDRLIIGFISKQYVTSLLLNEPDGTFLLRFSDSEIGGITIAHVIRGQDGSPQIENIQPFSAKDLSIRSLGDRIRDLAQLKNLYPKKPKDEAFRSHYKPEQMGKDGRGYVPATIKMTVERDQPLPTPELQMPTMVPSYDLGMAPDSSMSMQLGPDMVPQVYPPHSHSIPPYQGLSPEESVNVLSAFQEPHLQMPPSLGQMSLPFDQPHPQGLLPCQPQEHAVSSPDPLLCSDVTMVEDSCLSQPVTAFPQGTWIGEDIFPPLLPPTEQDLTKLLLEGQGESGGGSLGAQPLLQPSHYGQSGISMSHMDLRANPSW
Type: cell-based
Method: This was a HiBit based assay. A HeLa cell line stably transfected with a small protein, LgBit (Large Bit) was obtained from Promega. These cells express endogenous STAT6. A small 11 amino acid gene sequence (HiBiT) was inserted in the STAT6 gene using CRISPR technology. Once STAT6 protein is expressed in the cells, the HiBiT sequence will bind the LgBit in the cells resulting in a functional NanoBiT protein, giving a luminescent tag to STAT6, see FIG. 2.
Single cell clones were prepared and the clone 4.14 was selected for the assay based on that clone showing high luminescence, high STAT6 phosphorylation upon stimulation with IL-4, and inhibition of luminescence when cells were treated with STAT6 siRNA.
HeLa LgBiT clone 4.14 cells were suspended in DMEM with 10% FCS, 1% Pen/Strep, Na-pyrovate and Hygromycin B, at a concentration of 1.25*105 cells pr mL. 5000 cells were added pr well of a 384 well plate and 20 nL of compound was added by Echo® liquid handler. NN6394A (terfenadine, a toxic compound) was added to control wells at 50 μM concentration to establish the assay window. In these wells the cells are dead which equals 100% degradation of STAT6.
After 4-24 h of incubation at 37° C. under 5% CO2/95% air, 5 μL substrate (Nano-GLO®) was added to the wells and the plates were centrifuged and incubated for 0.5 h.
The luminescence in the wells as a measure of non-degraded STAT6 was measured in a plate reader (BMG Pherastar FSX).
The dose-response curves for Examples 3u208, 3u246, 3u118, 3u119, 3u120, and 3u74 are shown in FIG. 1 (where percent degradation is plotted vs. test compound concentration in M on a log-scale).

Row | Emax [%] | Compound
1 | 20 to 30 | CNc1cc(=O)n(-c2ccnc3c2cc([C@H](C)N2CC=C(c4c(C)cc(C(=O)N5CCC(CN6CCN(Cc7ccc8c(c7)n(C7CC7)c(=O)n8C7CCC(=O)NC7=O)C[C@@H]6C)CC5)cc4F)CC2)n3C)cc1OC (stereo partly drawn) [Example 3u134, 3-(3-cyclopropyl-5-(((S)-4-((1-(3-fluoro-4-(1-((S)-1-(4-(5-methoxy-4-(methylamino)-2-oxopyridin-1 (2H)-yl)-1-methyl-1H-pyrrolo[2,3-b]pyridin-2-yl)ethyl)-1,2,3,6-tetrahydropyridin-4-yl)-5-methylbenzoyl)piperidin-4-yl)methyl)-3-methylpiperazin-1-yl)methyl)-2-oxo-2,3-dihydro-1H-benzo[d]imidazol-1-yl)piperidine-2,6-dione]
2 | < 20 | CNc1nc(=O)n(-c2ccnc3c2cc(CN2CCC(c4c(F)cc(C(=O)N5CCC(CN6CCN(c7cc8c(cc7F)n(C7CCC(=O)NC7=O)c(=O)n8C)CC6)CC5)cc4F)CC2)n3C)cc1F (centres unmarked) [Example 3u261, 3-(5-(4-((1-(3,5-difluoro-4-(1-((4-(5-fluoro-4-(methylamino)-2-oxopyrimidin-1 (2H)-yl)-1-methyl-1H-pyrrolo[2,3-b]pyridin-2-yl)methyl)piperidin-4-yl)benzoyl)piperidin-4-yl)methyl)piperazin-1-yl)-6-fluoro-3-methyl-2-oxo-2,3-dihydro-1H-benzo[d]imidazol-1-yl)piperidine-2,6-dione]
3 | 30 to 40 | CNc1cc(=O)n(-c2ccnc3c2cc(CN2CCC(c4c(F)cc(C(=O)N5CCC(OCC#Cc6ccc7c(c6)n(C)c(=O)n7C6CCC(=O)NC6=O)CC5)cc4F)CC2)n3C)cc1F (centres unmarked) [Example 3u262, 3-(5-(3-((1-(3,5-difluoro-4-(1-((4-(5-fluoro-4-(methylamino)-2-oxopyridin-1 (2H)-yl)-1-methyl-1H-pyrrolo[2,3-b]pyridin-2-yl)methyl)piperidin-4-yl)benzoyl)piperidin-4-yl)oxy)prop-1-yn-1-yl)-3-methyl-2-oxo-2,3-dihydro-1H-benzo[d]imidazol-1-yl)piperidine-2,6-dione]
4 | 70 to 80 | CNc1cc(=O)n(-c2ccnc3c2cc(CN2CCC(c4c(F)cc(C(=O)N5CCC(CCn6cc(-c7ccc8c(c7)n(C)c(=O)n8C7CCC(=O)NC7=O)nn6)CC5)cc4F)CC2)n3C)cc1F (centres unmarked) [Example 3u263, 3-(5-(1-(2-(1-(3,5-difluoro-4-(1-((4-(5-fluoro-4-(methylamino)-2-oxopyridin-1 (2H)-yl)-1-methyl-1H-pyrrolo[2,3-b]pyridin-2-yl)methyl)piperidin-4-yl)benzoyl)piperidin-4-yl)ethyl)-1H-1,2,3-triazol-4-yl)-3-methyl-2-oxo-2,3-dihydro-1H-benzo[d]imidazol-1-yl)piperidine-2,6-dione]

Same assay, conditions: HeLa LgBiT clone 4.14 HiBiT-STAT6, 4-24 h incubation; values given for compounds with >80% Emax; geometric mean; read-out: STAT6 degradation DC50

Row | Compound | DC50 [nM]
5 | Cc1cc(C(=O)N2CCC(CN3CCN(Cc4ccc5c(c4)n(C4CC4)c(=O)n5C4CCC(=O)NC4=O)C[C@@H]3C)CC2)cc(F)c1C1=CCN([C@@H](C)c2cc3c(-n4ccc5c(c4=O)CCN5)ccnc3n2C)CC1 (stereo partly drawn) [Example 3u143, 3-(3-cyclopropyl-5-(((S)-4-((1-(3-fluoro-5-methyl-4-(1-((S)-1-(1-methyl-4-(4-oxo-1,2,3,4-tetrahydro-5H-pyrrolo[3,2-c]pyridin-5-yl)-1H-pyrrolo[2,3-b]pyridin-2-yl)ethyl)-1,2,3,6-tetrahydropyridin-4-yl)benzoyl)piperidin-4-yl)methyl)-3-methylpiperazin-1-yl)methyl)-2-oxo-2,3-dihydro-1H-benzo[d]imidazol-1-yl)piperidine-2,6-dione] | 0.7
6 | CNc1ccn(-c2ccnc3c2cc(CN2CC=C(c4c(C)cc(C(=O)N5CCC(CN6CCN(Cc7ccc8c(c7)n(C)c(=O)n8C7CCC(=O)NC7=O)CC6)CC5)cc4F)CC2)n3C)c(=O)c1 (centres unmarked) [Example 3u163, 3-(5-((4-((1-(3-fluoro-5-methyl-4-(1-((1-methyl-4-(4-(methylamino)-2-oxopyridin-1 (2H)-yl)-1H-pyrrolo[2,3-b]pyridin-2-yl)methyl)-1,2,3,6-tetrahydropyridin-4-yl)benzoyl)piperidin-4-yl)methyl)piperazin-1-yl)methyl)-3-methyl-2-oxo-2,3-dihydro-1H-benzo[d]imidazol-1-yl)piperidine-2,6-dione] | 4.4
7 | CNc1ccn(-c2ccnc3c2cc([C@H](C)N2CC=C(c4c(C)cc(C(=O)N(C)C5CCC(C6CCN(Cc7ccc8c(c7)n(C)c(=O)n8C7CCC(=O)NC7=O)CC6)CC5)cc4F)CC2)n3C)c(=O)c1 (stereo partly drawn) [Example 3u252, N-(4-(1-((1-(2,6-dioxopiperidin-3-yl)-3-methyl-2-oxo-2,3-dihydro-1H-benzo[d]-imidazol-5-yl)methyl)piperidin-4-yl)cyclohexyl)-3-fluoro-N,5-dimethyl-4-(1-((S)-1-(1-methyl-4-(4-(methylamino)-2-oxopyridin-1 (2H)-yl)-1H-pyrrolo[2,3-b]pyridin-2-yl)ethyl)-1,2,3,6-tetrahydropyridin-4-yl)benzamide] | 0.4
8 | CNc1ccn(-c2ccnc3c2cc([C@H](C)N2CC=C(c4c(C)cc(C(=O)N5CCn6nc(CC7CCN(c8ccc9c(c8)n(C8CC8)c(=O)n9C8CCC(=O)NC8=O)CC7)cc6C5)cc4F)CC2)n3C)c(=O)c1 (stereo partly drawn) [Example 3u259, 3-(3-cyclopropyl-5-(4-((5-(3-fluoro-5-methyl-4-(1-((S)-1-(1-methyl-4-(4-(methylamino)-2-oxopyridin-1 (2H)-yl)-1H-pyrrolo[2,3-b]pyridin-2-yl)ethyl)-1,2,3,6-tetrahydropyridin-4-yl)benzoyl)-4,5,6,7-tetrahydropyrazolo[1,5-a]pyrazin-2-yl)methyl)piperidin-1-yl)-2-oxo-2,3-dihydro-1H-benzo[d]imidazol-1-yl)piperidine-2,6-dione] | 0.5

Second part, the compound after the results:

Row | DC50 [nM] | Compound
9 | 24.1 | CNc1ccn(-c2ccnc3c2cc(CN2CCC(c4c(C)cc(C(=O)N5CCC(CN6CCN(Cc7ccc8c(c7)n(C)c(=O)n8C7CCC(=O)NC7=O)CC6)CC5)cc4F)CC2)n3C)c(=O)c1 (centres unmarked) [Example 3u158, 3-(5-((4-((1-(3-fluoro-5-methyl-4-(1-((1-methyl-4-(4-(methylamino)-2-oxopyridin-1 (2H)-yl)-1H-pyrrolo[2,3-b]pyridin-2-yl)methyl)piperidin-4-yl)benzoyl)piperidin-4-yl)methyl)-piperazin-1-yl)methyl)-3-methyl-2-oxo-2,3-dihydro-1H-benzo[d]imidazol-1-yl)piperidine-2,6-dione]
10 | 13.7 | CNc1ccn(-c2ccnc3c2cc([C@H](C)N2CC=C(c4c(C)cc(C(=O)N5CCC(CN6CCN(Cc7ccc8c(c7)C(F)(F)C(=O)N8C7CCC(=O)NC7=O)CC6)CC5)cc4F)CC2)n3C)c(=O)c1 (stereo partly drawn) [Example 3u255, 3-(3,3-difluoro-5-((4-((1-(3-fluoro-5-methyl-4-(1-((S)-1-(1-methyl-4-(4-(methylamino)-2-oxopyridin-1 (2H)-yl)-1H-pyrrolo[2,3-b]pyridin-2-yl)ethyl)-1,2,3,6-tetrahydropyridin-4-yl)benzoyl)piperidin-4-yl)methyl)piperazin-1-yl)methyl)-2-oxoindolin-1-yl)piperidine-2,6-dione]
11 | 5.9 | CNc1ccn(-c2ccnc3c2cc(CN2CCC(c4c(F)cc(C(=O)N5CCC(CN6CCN(C(=O)c7ccc8c(c7)n(C)c(=O)n8C7CCC(=O)NC7=O)CC6)CC5)cc4F)CC2)n3C)c(=O)c1 (centres unmarked) [Example 3u264, 3-(5-(4-((1-(3,5-difluoro-4-(1-((1-methyl-4-(4-(methylamino)-2-oxopyridin-1 (2H)-yl)-1H-pyrrolo[2,3-b]pyridin-2-yl)methyl)piperidin-4-yl)benzoyl)piperidin-4-yl)methyl)piperazine-1-carbonyl)-3-methyl-2-oxo-2,3-dihydro-1H-benzo[d]imidazol-1-yl)piperidine-2,6-dione]
